Measured values published in ChEMBL document CHEMBL1201862, “PubChem BioAssay data set” (2004).
Counter-ions that a name gives are not always drawn.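 Cells were grown in 96-well plates and exposed to each compound for 48 hours at five concentrations; endpoints were interpolated linearly between bracketing concentrations, or set to the highest concentration if not reached. The concentration for 50% growth inhibition is given as GI50.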 Calls of active or inactive are those of the source. Rule as the data show it: active = GI50 up to about 1.1 µM and inactive = higher.

Experiments:
Assay in all cases: NCI-60 cell line screen, 48 h
MDA-MB-231 = test system: MDA-MB-231
RPMI-8226 = test system: RPMI-8226
HOP-92 = test system: HOP-92
LOX IMVI = test system: LOX IMVI
SW-620 = test system: SW-620
786-0 = test system: 786-0
EKVX = test system: EKVX
SK-MEL-2 = test system: SK-MEL-2
HCT-116 = test system: HCT-116
SK-MEL-5 = test system: SK-MEL-5
MDA-MB-435 = test system: MDA-MB-435
HCC 2998 = test system: HCC 2998
BT-549 = test system: BT-549
HT-29 = test system: HT-29
Hs-578T = test system: Hs-578T
NCI-H23 = test system: NCI-H23
A498 = test system: A498
MDA-N = test system: MDA-N
A549 = test system: A549
TK-10 = test system: TK-10

Measured: GI50

COc1cc(/C=C2/Oc3c(OC)cccc3C2=O)ccc1O
inactive: MDA-MB-231 > 100 µM | RPMI-8226 53.2 µM | HOP-92 > 100 µM | LOX IMVI 84.5 µM | SW-620 > 100 µM | 786-0 76.4 µM | EKVX 46.9 µM | SK-MEL-2 > 100 µM | HCT-116 76.9 µM | SK-MEL-5 34.8 µM | MDA-MB-435 52.5 µM | HCC 2998 48.4 µM | BT-549 > 100 µM | HT-29 52.4 µM | Hs-578T > 100 µM | NCI-H23 > 100 µM | A498 94 µM | MDA-N > 100 µM | A549 > 100 µM | TK-10 > 100 µM

O=C(Nn1cnn2c(=O)c3ccccc3nc2c1=O)c1ccccc1
inactive: MDA-MB-231 > 100 µM | RPMI-8226 > 100 µM | HOP-92 > 100 µM | LOX IMVI > 100 µM | SW-620 > 100 µM | 786-0 > 100 µM | EKVX > 100 µM | SK-MEL-2 > 100 µM | HCT-116 > 100 µM | SK-MEL-5 > 100 µM | MDA-MB-435 > 100 µM | HCC 2998 > 100 µM | BT-549 > 100 µM | HT-29 > 100 µM | Hs-578T > 100 µM | NCI-H23 > 100 µM | A498 > 100 µM | MDA-N > 100 µM | A549 > 100 µM | TK-10 > 100 µM

CN(CCCCN1CCCC1)CCCN(C)C(=O)Cc1ccc(Cl)c(Cl)c1
inactive: MDA-MB-231 10.2 µM | RPMI-8226 5.85 µM | HOP-92 4.57 µM | LOX IMVI 11.9 µM | SW-620 17.7 µM | 786-0 12.9 µM | EKVX 19.5 µM | SK-MEL-2 7.94 µM | HCT-116 13.2 µM | SK-MEL-5 9.98 µM | MDA-MB-435 2.56 µM | HCC 2998 3.62 µM | BT-549 16 µM | HT-29 4.45 µM | Hs-578T 20.6 µM | NCI-H23 18 µM | A498 15.8 µM | MDA-N 4.27 µM | A549 18.7 µM | TK-10 17.7 µM

CCOC(=O)c1c(NC(=O)c2cccs2)sc2c1CCCC2
inactive: MDA-MB-231 24.6 µM | RPMI-8226 > 100 µM | HOP-92 43.3 µM | LOX IMVI > 100 µM | SW-620 > 100 µM | 786-0 34.8 µM | EKVX 54.8 µM | SK-MEL-2 42 µM | HCT-116 46.9 µM | SK-MEL-5 > 100 µM | MDA-MB-435 > 100 µM | HCC 2998 > 100 µM | BT-549 58.7 µM | HT-29 > 100 µM | Hs-578T 27.6 µM | NCI-H23 48.3 µM | A498 24.3 µM | MDA-N > 100 µM | A549 55.5 µM | TK-10 45.8 µM

CC[C@@H]1C(=O)OC[C@@H]1Cc1cncn1C [PILOCARPINE HYDROCHLORIDE]
inactive: MDA-MB-231 > 100 µM | RPMI-8226 > 100 µM | HOP-92 > 100 µM | LOX IMVI > 100 µM | SW-620 > 100 µM | 786-0 > 100 µM | EKVX > 100 µM | SK-MEL-2 > 100 µM | HCT-116 > 100 µM | SK-MEL-5 > 100 µM | MDA-MB-435 > 100 µM | HCC 2998 > 100 µM | BT-549 > 100 µM | HT-29 > 100 µM | Hs-578T > 100 µM | NCI-H23 > 100 µM | A498 > 100 µM | MDA-N > 100 µM | A549 > 100 µM | TK-10 > 100 µM

O=C1C(=Cc2ccco2)C(=O)C2CCCCC12 (stereo not given)
inactive: MDA-MB-231 > 100 µM | RPMI-8226 > 100 µM | HOP-92 > 100 µM | LOX IMVI > 100 µM | SW-620 > 100 µM | 786-0 > 100 µM | EKVX > 100 µM | SK-MEL-2 > 100 µM | HCT-116 > 100 µM | SK-MEL-5 > 100 µM | MDA-MB-435 > 100 µM | HCC 2998 > 100 µM | BT-549 > 100 µM | HT-29 > 100 µM | Hs-578T > 100 µM | NCI-H23 > 100 µM | A498 > 100 µM | MDA-N > 100 µM | A549 > 100 µM | TK-10 > 100 µM

OC1[C@@H]2[C@@H](O)CCCN2C[C@@H](O)[C@H]1O (stereo not given in full)
inactive: MDA-MB-231 > 100 µM | RPMI-8226 > 100 µM | HOP-92 > 100 µM | LOX IMVI > 100 µM | SW-620 > 100 µM | 786-0 > 100 µM | EKVX > 100 µM | SK-MEL-2 > 100 µM | HCT-116 > 100 µM | SK-MEL-5 > 100 µM | MDA-MB-435 > 100 µM | HCC 2998 > 100 µM | BT-549 > 100 µM | HT-29 > 100 µM | Hs-578T > 100 µM | NCI-H23 > 100 µM | A498 > 100 µM | MDA-N > 100 µM | A549 > 100 µM | TK-10 > 100 µM

COc1ccc(C2=CC(C(C)=C(C(N)=O)C(N)=O)C=C(c3ccc(Br)cc3)C2)c(OC)c1 (stereo not given)
inactive: MDA-MB-231 > 100 µM | RPMI-8226 > 100 µM | HOP-92 31.8 µM | LOX IMVI > 100 µM | SW-620 > 100 µM | 786-0 > 100 µM | EKVX 44.2 µM | SK-MEL-2 > 100 µM | HCT-116 > 100 µM | SK-MEL-5 > 100 µM | MDA-MB-435 > 100 µM | HCC 2998 > 100 µM | BT-549 > 100 µM | HT-29 > 100 µM | Hs-578T 63.1 µM | NCI-H23 > 100 µM | A498 > 100 µM | MDA-N > 100 µM | A549 > 100 µM | TK-10 > 100 µM

COc1ccc(S(=O)(=O)NC(CCC(=O)NC(N)=O)C(=O)NC(N)=O)cc1 (stereo not given)
inactive: MDA-MB-231 > 100 µM | RPMI-8226 > 100 µM | HOP-92 > 100 µM | LOX IMVI > 100 µM | SW-620 > 100 µM | 786-0 > 100 µM | EKVX > 100 µM | SK-MEL-2 > 100 µM | HCT-116 > 100 µM | SK-MEL-5 > 100 µM | MDA-MB-435 > 100 µM | HCC 2998 > 100 µM | BT-549 > 100 µM | HT-29 > 100 µM | Hs-578T > 100 µM | NCI-H23 > 100 µM | A498 > 100 µM | MDA-N > 100 µM | A549 > 100 µM | TK-10 > 100 µM
